Assay results reported in patent EP2316926B1, “Enantioselective production of alpha-hydroxy carbonyl compounds” (priority 2009, dated 2011).

Key:
Assay type in all cases: biochemical
Gox1615 [1] = biological target: T1, Gox1615 (Gluconobacter oxydans, UniProt Q5FQJ0); assay: NADPH-dependent α-ketocarbonyl reductase activity assay (rate of decrease of NADPH at 340 nm)
T1 sequence (Q5FQJ0 1-332): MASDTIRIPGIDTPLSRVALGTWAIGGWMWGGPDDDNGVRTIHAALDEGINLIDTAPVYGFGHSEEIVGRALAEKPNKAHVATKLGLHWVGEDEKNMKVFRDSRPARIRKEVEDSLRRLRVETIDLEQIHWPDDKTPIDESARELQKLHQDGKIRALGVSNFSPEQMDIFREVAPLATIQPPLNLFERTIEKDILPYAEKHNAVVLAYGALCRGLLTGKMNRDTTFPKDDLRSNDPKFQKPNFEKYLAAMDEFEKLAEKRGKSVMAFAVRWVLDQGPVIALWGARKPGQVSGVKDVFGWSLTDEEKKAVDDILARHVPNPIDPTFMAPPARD
Protocol: Measurement of enzyme activity: NADPH-dependent α-ketocarbonyl reductases were assayed by a routine method used for NAD(P)-linked enzymes by recording the rate of decrease of NADPH at 340 nm (ε = 6.22 mM^-1 x cm^-1)) with substrates at 30 °C. The reaction mixture (1 ml) for reduction of α-ketocarbonyl substrates contained 10 mM substrate, 40 mM potassium phosphate buffer pH 7.0, 0.025 mM NAD(P)H and the enzyme. Reactions were induced by addition of enzyme or substrate. One unit was defined as the amount of enzyme activity catalyzing the conversion of 1 µmol of pyridine nucleotide per min at 30 °C. NMR Analysis of Biotransformation Products: Biotransformations were extracted with equal volumes of CDCl3. and ^13C NMR spectra were recorded on a Bruker Avance 300 DPX spectrometer operating at 300 MHz for ^1H NMR and at 75 MHz for ^13C NMR, respectively. Spectra were processed using Bruker TonSpin 1.3 for Windows software and calibrated to the residual solvent peak of CDCl3 (δH = 7.26 / δC = 77.0).
NADPH-dependent α-ketocarbonyl reductases were assayed by a routine method used for NAD(P)-linked enzymes by recording the rate of decrease of NADPH at 340 nm (ε = 6.22 mM^-1.cm^-1) with substrates at 30 °C. The reaction mixture (1 ml) for reduction of α-ketocarbonyl substrates contained 10 mM substrate, 40 mM potassium phosphate buffer pH 7.0, 0.025 mM NADPH, and the enzyme. Reactions were induced by addition of enzyme or substrate. One unit of activity was defined as the amount of enzyme activity catalyzing the conversion of 1 µmol of pyridine nucleotide per min at 30 °C.
Purified NAD(P)-dependent oxidoreductases were assayed at 30 °C by a routine method used for NAD(P)-linked enzymes by recording the rate of decrease of NAD(P)H at 340 nm (ε = 6.22 mM^-1˙cm^-1) with substrates capable of reduction reactions. The standard reaction mixture (1 ml) for the reduction reactions of substrates contained 10 mM substrate, 40 mM potassium phosphate buffer (K-phosphate buffer) pH 7.0, 0.05 mM NAD(P)H, and the enzyme unless otherwise noted. Reactions were induced by addition of enzyme or substrate. One unit of activity was defined as the amount of enzyme activity catalyzing the conversion of 1 µmol of pyridine nucleotide per min at 30 °C. Measurement of the protein content was performed by the method of Bradford (Bradford M.M., Anal. Biochem. 72:248-254 (1976)). Table 3: Enzymatic activities with α-diketones, α-ketoaldehydes and α-ketoesters

Gox0644 = Gox0644 (Gluconobacter oxydans, UniProt Q5FT75); assay: Kinetic constants from purified enzyme by Lineweaver-Burk plots
Protocol: (§1) Determination of pH and temperature optima and enzyme kinetics: The optimum pH for enzyme activities was determined by a modified method of Salusjärvi, T. et al., Appl. Microbiol. Biotechnol. 65:306-314 (2004) using the following buffer system (50 mM final concentration each): sodium acetate pH 4.5 - 6.5, potassium phosphate pH 6.5 - 8.0, Tris-HCl pH 8.0 - 10. Temperature optima for the biocatalysts were determined under standard reaction conditions at temperatures ranging from 20 - 80 °C. The Michaelis constant (Km) for the proteins was determined from purified enzyme by Lineweaver-Burk plots. Assays were performed at optimum pH for each enzyme and at 30 °C using the best substrate and a targeted substrate. The Km for each substrate was calculated using concentrations of 0.0025 to 10 mM, and the Km NAD(P)H and NAD(P) was calculated using concentrations of 0.01 to 0.5 mM
(§2) 2.9 Kinetic parameters of the keto carbonyl reductases: Kinetic constants were determined from purified enzyme by Lineweaver-Burk plots. The Km and Vmax values for the substrates were calculated using concentrations of 0.025 to 10 mM. The optimal pH values and temperatures for enzyme activities are also shown in Tab. 8. Table 8: Summary of kinetic parameters

Gox1615 [2] = biological target: T1, Gox1615; assay: as above
Protocol: as §1, §2

SMILES: CCC(=O)C(C)=O [2,3-pentanedione]
- Gox1615 U/mg* (Gox1615 [1]; Table 3, 10 mM substrate, 40 mM K-phosphate buffer pH 7.0, 0.05 mM NAD(P)H, 30 °C, U/mg = µmol x min^-1 x mg protein^-1): 7.0 U/mg
- Specific Activity (U/mg)* (Gox1615 [1]; Table 5, cofactor NADPH, U/mg = µmol/mg·min): 7.0 U/mg
- Vmax (Gox0644): 70 U/mg protein
- Vmax (Gox1615 [2]): 7.0 U/mg protein
